What was measured:
[1] = Hepatic extraction ratio in Beagle dog at 1.1 microM/Kg, iv; format: ADME, Canis lupus familiaris; conditions: at 1.1 µmol/kg, read-out: ERH
GTPase KRas = GTPase KRas (Homo sapiens, UniProt P01116, G12C)
[2] = Volume of distribution at steady state in CD-1 mouse at 2.3 microM/Kg, iv; format: ADME; conditions: in vivo
[3] = Hepatic extraction ratio in CD-1 mouse at 2.3 microM/Kg, iv; format: ADME; conditions: at 2.3 µmol/kg, read-out: ERH
[4] = Inhibition of KRAS/MAPK pathway in human NCI-H358 cells harboring KRAS G12C mutant assessed as decrease in p90RSK phosphorylation incubated for 2 hrs by immunofluorescence assay; format: cell-based; conditions: NCI-H358, 2 h
[5] = Oral bioavailability in Beagle dog at 2.3 microM/Kg; format: ADME, organism-based, Canis lupus familiaris; conditions: in vivo, at 2.3 µmol/kg
[6] = Unbound brain-to-plasma concentration ratio in iv dosed Cynomolgus monkey administered as […] compound by HPLC analysis; format: ADME, organism-based, Macaca fascicularis; conditions: read-out: K(p,uu,brain)
[7] = Oral bioavailability in CD-1 mouse at 6.8 microM/Kg; format: ADME, organism-based; conditions: in vivo, at 6.8 µmol/kg
[8] = Half life in Wistar Han rat at 1.1 to 2.3 microM/Kg, iv; format: ADME; conditions: in vivo, dose 1.1-2.3 µM/Kg
[9] = Lipophilicity, logD of compound at 7.4; conditions: octanol/water, pH 7.4, logD
[10] = Half life in Beagle dog at 1.1 microM/Kg, iv; format: ADME, Canis lupus familiaris; conditions: in vivo
[11] = Inhibition of KRAS/MAPK pathway in human PC-9 cells harboring wild-type KRAS assessed as decrease in p90RSK phosphorylation incubated for 2 hrs by immunofluorescence assay; format: cell-based; conditions: PC-9, 2 h
[12] = Unbound brain-to-plasma concentration ratio in Wistar Han rat at 2.3 microM/Kg, iv and measured after 4 hrs; format: ADME, organism-based; conditions: read-out: K(p,uu,brain)
[13] = Free drug concentration in athymic nude mouse plasma xenografted with human NCI-H358 cells harboring KRAS G12C mutant at 30 to 100 mg/kg, po and measured upto 24 hrs; format: ADME, organism-based; conditions: in vivo, dose 30-100 mg/kg
Mus musculus [14] = species on record: Mus musculus; conditions: dose 10-30 mg/kg, route po, time 3.0 hrs
[15] = Oral bioavailability in Wistar Han rat at 2.3 to 6.8 microM/Kg; format: ADME, organism-based; conditions: in vivo, dose 2.3-6.8 µM/Kg
[16] = Unbound brain-to-plasma concentration ratio in Wistar Han rat at 2.3 microM/Kg, iv and measured after 1 hrs in presence of pretreatment with elacridar for 0.5 hrs; format: ADME, organism-based; conditions: with elacridar (pretreatment for 0.5 hrs, dose not stated), read-out: K(p,uu,brain)
MDR1 and BCRP = assay: Efflux ratio of apparent permeability in dog MDCK cells transfected with MDR1 and BCRP at 0.1 uM; format: ADME, cell-based, Canis lupus familiaris
[17] = […] stability in rat hepatocyte assessed as intrinsic clearance measured per million of cells; format: ADME, cell-based; conditions: hepatocytes
[18] = Hepatic blood flow in CD-1 mouse at 2.3 microM/Kg, iv; format: ADME
[19] = Volume of distribution at steady state in Beagle dog at 1.1 microM/Kg, iv; format: ADME, Canis lupus familiaris; conditions: in vivo, read-out: Vdss
[20] = Toxicity in athymic nude mouse xenografted with human NCI-H358 cells harboring KRAS G12C mutant assessed as body weight change at 10 to 100 mg/kg, po for 21 days; format: organism-based; conditions: in vivo, 504 h, dose 10-100 mg/kg, time 21 day
NCI-H358 [21] = assay: Antiproliferative activity against human NCI-H358 cells harboring KRAS G12C mutant cultured as […] assessed as reduction in cell proliferation incubated for 3 days by CellTiter-Glo reagent based assay; format: functional; conditions: NCI-H358, 72 h
[22] = Drug distribution in iv dosed Cynomolgus monkey brain administered as […] compound and assessed as radioactivity and measured 5 to 123 min post dose by PET imaging analysis; format: ADME, organism-based, Macaca fascicularis; conditions: in vivo, time 5-123 min
[23] = Volume of distribution at steady state in Wistar Han rat at 1.1 to 2.3 microM/Kg, iv; format: ADME; conditions: in vivo, dose 1.1-2.3 µM/Kg, read-out: Vdss
A549 = assay: Antiproliferative activity against human A549 cells harboring KRAS G12S mutant cultured as 3D spheroids assessed as reduction in cell proliferation incubated for 3 days by CellTiter-Glo 3D reagent based assay; format: functional; conditions: A549, 72 h
[24] = Hepatic blood flow in Beagle dog at 1.1 microM/Kg, iv; format: ADME, Canis lupus familiaris
[25] = Unbound brain-to-plasma concentration ratio in Beagle dog at 170 to 680 microM/Kg, po QD for 15 days and measured 2 hrs last dose; format: ADME, organism-based, Canis lupus familiaris; conditions: dose 170-680 µM/Kg, time 15 day, read-out: K(p,uu,brain)
[26] = Observed clearance in Beagle dog at 1.1 microM/Kg, iv; format: ADME, Canis lupus familiaris; conditions: in vivo
Mus musculus [27] = species on record: Mus musculus; conditions: dose 10-30 mg/kg, route po, time 6.0 hrs
[28] = Hepatic extraction ratio in Wistar Han rat at 1.1 to 2.3 microM/Kg, iv; format: ADME; conditions: dose 1.1-2.3 µM/Kg, read-out: ERH
in vitro = conditions: human, liver microsomes, CLH
Description: Microsomal stability in human liver microsomes assessed as intrinsic clearance

[29] = Hepatic blood flow in Wistar Han rat at 1.1 to 2.3 microM/Kg, iv; format: ADME; conditions: dose 1.1-2.3 µM/Kg
[30] = Observed clearance in Wistar Han rat at 1.1 to 2.3 microM/Kg, iv; format: ADME; conditions: in vivo, dose 1.1-2.3 µM/Kg
[31] = Inhibition of KRAS/MAPK pathway in human Calu-6 cells harboring KRAS Q61K mutant assessed as decrease in p90RSK phosphorylation incubated for 2 hrs by immunofluorescence assay; format: cell-based; conditions: Calu-6, 2 h
NCI-H358 [32] = assay: Antiproliferative activity against human NCI-H358 cells harboring KRAS G12C mutant cultured as 3D spheroids assessed as reduction in cell proliferation incubated for 3 days by CellTiter-Glo 3D reagent based assay; format: functional; conditions: NCI-H358, 72 h

Sequence of GTPase KRas (P01116 whole entry G12C): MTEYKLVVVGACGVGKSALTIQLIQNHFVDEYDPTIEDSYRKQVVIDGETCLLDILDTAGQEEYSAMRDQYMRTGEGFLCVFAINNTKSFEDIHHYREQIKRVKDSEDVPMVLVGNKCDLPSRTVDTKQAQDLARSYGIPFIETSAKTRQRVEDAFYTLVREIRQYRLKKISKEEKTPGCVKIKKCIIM

hepatic extraction ratio [1]: 0.19 | IC50 (GTPase KRas): 15 nM | Vdss [2]: 2.9 L/kg | hepatic extraction ratio [3]: 0.52 | IC50 [4]: 65 nM | bioavailability [5]: 63% | Kp uu [6]: 1.6 | bioavailability [7]: 58% | half-life [8]: 33.6 min | logD [9]: 2.9 | half-life [10]: 102 min | IC50 [11]: > 30 µM | Kp uu at 4 h [12]: 0.11 | Cp(f) [13]: 0.04 µM | bioavailability [15]: 18% | Kp uu at 1 h [16]: 1 | efflux ratio at 0.1 µM (MDR1 and BCRP): 1.1 | CLH [17]: 34 µL/min | QH [18]: 152 mL/min/kg | Vd [19]: 1.2 L/kg | IC50 (NCI-H358 [21]): 360 nM | Drug uptake [22]: Active | Vd [23]: 1.7 L/kg | IC50 (A549): 23.3 µM | QH [24]: 55 mL/min/kg | Kp uu at 360 h [25]: 0.7 | clearance [26]: 10 mL/min/kg | hepatic extraction ratio [28]: 0.75 | microsomal CLint (in vitro): 15 µL/min/mg | QH [29]: 72 mL/min/kg | clearance [30]: 54 mL/min/kg | IC50 [31]: > 30 µM | IC50 (NCI-H358 [32]): 12 nM
SMILES: C=CC(=O)N1CCN2Cc3cc(C#CC)c(-c4c(O)cccc4Cl)c(F)c3OC[C@H]2C1
inhibition (Mus musculus [14]): Dose-Dependent Effect | Activity [20]: Non-Toxic | inhibition (Mus musculus [27]): Dose-Dependent Effect
